Consider 19 substances from patent publication US11957716B2 (Immatics Biotechnologies GmbH, priority 2021, dated 2024).

The test system of assay [1] is HLA-A*01:01, HLA-A*02:01, HLA-A*03:01, HLA-A*24:02, HLA-B*07:02, HLA-B*08:01 and HLA-B*44:02. Description: HLA alleles the peptides bind to (Table 7). The assay is classed as binding, human. The following applies: allotype from the group HLA-A*01:01, HLA-A*02:01, HLA-A*03:01, HLA-A*24:02, HLA-B*07:02, HLA-B*08:01, HLA-B*44:02. An excerpt:
However, due to similarities in binding pattern such as the relevant anchoring positions some peptides bind to more than one allele, such an overlap is most likely, but not limited to, HLA-A*01 binding peptides also binding to HLA-B*15, HLA-A*03 binding peptides also binding to HLA-A*11, HLA-B*07 binding peptides also binding to HLA-B*35 and HLA-B*51.

The target in assay [2] is HLA-A*03:01 (Homo sapiens, UniProt P04439). Description: MHC binding assay, UV-ligand exchange ELISA. Conditions: peptide exchange yield, binding to HLA-A*03:01. From the text:
Candidate peptides for T cell based therapies according to the present invention were further tested for their MHC binding capacity (affinity). The individual peptide-MHC complexes were produced by UV-ligand exchange, where a UV-sensitive peptide is cleaved upon UV-irradiation and exchanged with the peptide of interest as analyzed. Only peptide candidates that can effectively bind and stabilize the peptide-receptive MHC molecules prevent dissociation of the MHC complexes. To determine the yield of the exchange reaction, an ELISA was performed based on the detection of the light chain (β2m) of stabilized MHC complexes. The assay was performed as generally described in Rodenko et al. (Rodenko et al., 2006).
96 well MAXISorp plates (NUNC) were coated over night with 2 μg/ml streptavidin in PBS at room temperature, washed 4× and blocked for 1 h at 37° C. in 2% BSA containing blocking buffer. Refolded HLA-A*02:01/MLA-001 monomers served as standards, covering the range of 15-500 ng/ml. Peptide-MHC monomers of the UV-exchange reaction were diluted 100-fold in blocking buffer. Samples were incubated for 1 h at 37° C., washed four times, incubated with 2 μg/ml HRP conjugated anti-82m for 1 h at 37° C., washed again and detected with TMB solution that is stopped with […]. Absorption was measured at 450 nm. Candidate peptides that show a high exchange yield (preferably higher than 50%, most preferred higher than 75%) are generally preferred for a generation and production of antibodies or fragments thereof, and/or T cell receptors or fragments thereof, as they show sufficient avidity to the MHC molecules and prevent dissociation of the MHC complexes.
A general note: An ELISA detects its analyte on a solid surface through an enzyme-linked reagent.

Turning to “51 (SVFSLVHLFDK; listed as Homo sapiens) [compound 51]”, the “Binders (HLA alleles the peptides according to the invention bind to)” value (“Binders” below) in assay [1] was “HLA-A*03:01”. The Peptide exchange result in assay [2] is listed as “++++ (≥75% = ++++)”.
For “44 (SLFPYFLNK; listed as Homo sapiens) [compound 44]”, the “Binders” value in assay [1] is recorded as “HLA-A*03:01”. Moreover, the Peptide exchange entry in assay [2] is “++++ (≥75% = ++++)”.
On the same counts, the results for “90 (LALLGAPPPK; listed as Homo sapiens) [compound 90]” are “HLA-A*03:01” and “++ (≥20% = ++)”.
On the same counts, the results for “94 (AVFLGNPSNQK; listed as Homo sapiens) [compound 94]” are “HLA-A*03:01” and “++++ (≥75% = ++++)”.
“22 (RVIEVVMNSK; listed as Homo sapiens) [compound 22]”: the “Binders” value in assay [1] is recorded as “HLA-A*03:01”. Besides, the Peptide exchange entry in assay [2] is given as “++++ (≥75% = ++++)”.
As to “198 (MTYQQPFSNR; listed as Homo sapiens) [compound 198]”, the “Binders” value in assay [1] is “HLA-A*03:01”. Further, in assay [2], the Peptide exchange entry is reported as “++++ (≥75% = ++++)”.
Regarding “72 (GSCSFALSR; listed as Homo sapiens) [compound 72]”, the “Binders” value in assay [1] is listed as “HLA-A*03:01”. Moreover, the Peptide exchange entry in assay [2] was “++++ (≥75% = ++++)”.
In the same order, the values of “159 (ASAIPAGAK; listed as Homo sapiens) [compound 159]” are “HLA-A*03:01” and “+++ (≥50% = +++)”.
On the same counts, the results for “143 (AVLGALLRH; listed as Homo sapiens) [compound 143]” are “HLA-A*03:01” and “++++ (≥75% = ++++)”.
In the same order, the values of “179 (MIFSGVFLR; listed as Homo sapiens) [compound 179]” are “HLA-A*03:01” and “++++ (≥75% = ++++)”.
For “35 (SLATAISAK; listed as Homo sapiens) [compound 35]”, the “Binders” value in assay [1] was “HLA-A*03:01”. Besides, in assay [2], the Peptide exchange entry is “+++ (≥50% = +++)”.
Regarding “91 (RIVTYIVAK; listed as Homo sapiens) [compound 91]”, in assay [1], the “Binders” value is “HLA-A*03:01”. Besides, in assay [2], the Peptide exchange result is given as “+++ (≥50% = +++)”.
Consider “146 (KVLVDFLLK; listed as Homo sapiens) [compound 146]”, for which, in assay [1], the “Binders” value is recorded as “HLA-A*03:01”. The Peptide exchange entry in assay [2] is “+++ (≥50% = +++)”.
In the same order, the values of “24 (LIYIPTNSIYK; listed as Homo sapiens) [compound 24]” are “HLA-A*03:01” and “++++ (≥75% = ++++)”.
On the same counts, the results for “19 (RILEVVRQPK; listed as Homo sapiens) [compound 19]” are “HLA-A*03:01” and “++++ (≥75% = ++++)”.
For the substance “101 (ATNSFLLIK; listed as Homo sapiens) [compound 101]”, in assay [1], the “Binders” value is listed as “HLA-A*03:01”. For the same substance, the Peptide exchange entry in assay [2] was “++++ (≥75% = ++++)”.
On the same counts, the results for “213 (TLLSFKTVLFK; listed as Homo sapiens) [compound 213]” are “HLA-A*03:01” and “++++ (≥75% = ++++)”.
In the same order, the values of “151 (AVFVNWEQTKK; listed as Homo sapiens) [compound 151]” are “HLA-A*03:01” and “++++ (≥75% = ++++)”.
In the same order, the values of “209 (AILLPQLPK; listed as Homo sapiens) [compound 209]” are “HLA-A*03:01” and “++++ (≥75% = ++++)”.
